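GI50 is the concentration that inhibits growth by half. TGI: total growth inhibition.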
Key:
Experiment in all cases: inhibition of tumour cell growth, NCI panel, 384-well format
[1] = system: UACC-62 melanoma
[2] = system: NCI-H522 lung
[3] = system: RXF 393 renal
[4] = system: HOP-62 NSCLC
[5] = system: RPMI-8226 leukemia
[6] = system: SK-MEL-5 melanoma
[7] = system: HCC-2998 colon
[8] = system: OVCAR-8 ovarian
[9] = system: HCT-15 colon
[10] = system: M14 melanoma
[11] = system: A498 renal
[12] = system: MDA-MB-231 breast
[13] = system: KM12 colon
[14] = system: T-47D breast
[15] = system: EKVX NSCLC
[16] = system: SF-539 CNS
[17] = system: MDA-MB-468 breast
[18] = system: SN12C renal
[19] = system: LOX IMVI melanoma
[20] = system: SW-620 colon
[21] = system: NCI-H460 NSCLC
[22] = system: SR leukemia
[23] = system: UO-31 renal
[24] = system: BT-549 breast
[25] = system: U251 glioblastoma
[26] = system: ACHN renal
[27] = system: IGROV1 ovarian
[28] = system: 786-0 renal
[29] = system: A549 NSCLC
[30] = system: NCI-H226 lung
[31] = system: SNB-19 CNS
[32] = system: SNB-75 CNS
[33] = system: NCI-H322M lung
[34] = system: HT29 colon
[35] = system: CAKI-1 renal
[36] = system: OVCAR-4 ovarian
[37] = system: SK-OV-3 ovarian
[38] = system: TK-10 renal
[39] = system: MOLT-4 leukemia
[40] = system: SF-268 CNS
[41] = system: MCF7 breast
[42] = system: UACC-257 melanoma
[43] = system: NCI/ADR-RES ovarian
[44] = system: HOP-92 NSCLC
[45] = system: HCT-116 colon
[46] = system: PC-3 prostate
[47] = system: MDA-MB-435 melanoma
[48] = system: COLO 205 colon
[49] = system: OVCAR-3 ovarian
[50] = system: K-562 leukemia
[51] = system: HS 578T breast
[52] = system: CCRF-CEM leukemia
[53] = system: NCI-H23 lung
[54] = system: DU-145 prostate
[55] = system: HL-60(TB) leukemia
[56] = system: SK-MEL-28 melanoma
[57] = system: SF-295 CNS
[58] = system: MALME-3M melanoma

Compound `CNc1ncc2cc(-c3cc(NC(=O)NCCC(C)(C)C)c(F)cc3C)c(C)nc2n1` has a GI50 [1] of under 10 nM, a TGI [1] of 51.7 nM and a GI50 [2] of 670 nM. The TGI [2] was 9380 nM, the GI50 [3] was 440 nM and the TGI [3] was 10500 nM. For the same compound, the GI50 [4] was 367 nM, the TGI [4] was 15900 nM and the GI50 [5] was 162 nM. For the same compound, the TGI [5] was 585 nM, the GI50 [6] was 38.2 nM and the TGI [6] was 4200 nM. The GI50 [7] was 127 nM, the TGI [7] was 11500 nM and the GI50 [8] was 489 nM. It also gave a TGI [8] of 48900 nM, a GI50 [9] of 525 nM and a TGI [9] of 38600 nM. It also gave a GI50 [10] of under 10 nM, a TGI [10] of 36.4 nM and a GI50 [11] of 294 nM. The TGI [11] was over 100000 nM, the GI50 [12] was 47.9 nM and the TGI [12] was 397 nM. For the same compound, the GI50 [13] was 501 nM, the TGI [13] was 38300 nM and the GI50 [14] was 2400 nM. It also gave a TGI [14] of 37700 nM, a GI50 [15] of 2090 nM and a TGI [15] of 82400 nM. The GI50 [16] was 1750 nM, the TGI [16] was 19200 nM and the GI50 [17] was 12800 nM. It also gave a TGI [17] of 35200 nM, a GI50 [18] of 173 nM and a TGI [18] of 889 nM. It also gave a GI50 [19] of 27.7 nM, a TGI [19] of 237 nM and a GI50 [20] of 334 nM. The TGI [20] was 15400 nM, the GI50 [21] was 302 nM and the TGI [21] was 13800 nM. The GI50 [22] was 181 nM, the TGI [22] was 385 nM and the GI50 [23] was 210 nM. It also gave a TGI [23] of 23600 nM, a GI50 [24] of 1260 nM and a TGI [24] of 19900 nM. The GI50 [25] was 506 nM, the TGI [25] was 13000 nM and the GI50 [26] was 250 nM. For the same compound, the TGI [26] was 19100 nM, the GI50 [27] was 157 nM and the TGI [27] was 1050 nM. For the same compound, the GI50 [28] was 676 nM, the TGI [28] was 39100 nM and the GI50 [29] was 711 nM. For the same compound, the TGI [29] was 15200 nM, the GI50 [30] was 299 nM and the TGI [30] was 15700 nM. The GI50 [31] was 1550 nM, the TGI [31] was 71000 nM and the GI50 [32] was 361 nM. The TGI [32] was 15400 nM, the GI50 [33] was 318 nM and the TGI [33] was 12900 nM. The GI50 [34] was 26.8 nM, the TGI [34] was 13100 nM and the GI50 [35] was 134 nM. It also gave a TGI [35] of 1230 nM, a GI50 [36] of 18300 nM and a TGI [36] of over 100000 nM. For the same compound, the GI50 [37] was 303 nM, the TGI [37] was 4160 nM and the GI50 [38] was 599 nM. It also gave a TGI [38] of 4670 nM, a GI50 [39] of 360 nM and a TGI [39] of 15400 nM. The GI50 [40] was 1090 nM, the TGI [40] was 16100 nM and the GI50 [41] was 7040 nM. It also gave a TGI [41] of over 100000 nM, a GI50 [42] of 16.6 nM and a TGI [42] of 119 nM. The GI50 [43] was 3080 nM, the TGI [43] was 83700 nM and the GI50 [44] was 166 nM. The TGI [44] was 409 nM, the GI50 [45] was 58.5 nM and the TGI [45] was 916 nM. It also gave a GI50 [46] of 13300 nM, a TGI [46] of over 100000 nM and a GI50 [47] of 33.6 nM. It also gave a TGI [47] of 27300 nM, a GI50 [48] of 14.4 nM and a TGI [48] of 543 nM. The GI50 [49] was 1230 nM, the TGI [49] was 55800 nM and the GI50 [50] was 126 nM. For the same compound, the TGI [50] was 284 nM, the GI50 [51] was 354 nM and the TGI [51] was 7890 nM. For the same compound, the GI50 [52] was 495 nM, the TGI [52] was 18300 nM and the GI50 [53] was 47.2 nM. For the same compound, the TGI [53] was 443 nM, the GI50 [54] was 652 nM and the TGI [54] was 32400 nM. It also gave a GI50 [55] of 17.1 nM, a TGI [55] of 130 nM and a GI50 [56] of under 10 nM. The TGI [56] was 35.9 nM, the GI50 [57] was 1200 nM and the TGI [57] was over 100000 nM. The GI50 [58] was under 10 nM.
